# Laboratory results as given in US20120021979A1 (Vanderbilt University, priority 2010, published 2012).
# What was measured:
# [1] = system: Na+/K+ ATPase; experiment: slice based biotinylation, Na+/K+ ATPase surface expression in striatal slices; format: cell-based; details: 100 nM, 20 min, rat striatal slices, vs vehicle
# Excerpt: In addition, the absence of tyrosine hydroxylase (TH, a cytosolic protein found in DAT terminals) from the biotinylated surface fraction serves a control for the integrity of our slice preparation and specificity of the surface signal.
# [2] = system: DAT; experiment: radiolabeled DA [3H-DA] uptake in striatal slices; format: cell-based; details: 100 nM for 10 min, 3H-DA 10 min, vs vehicle
# Procedure: Slices were exposed to ^3H-DA for 10 min and then washed to remove excess DA at 4° C. to stop uptake. Slices were homogenized and ^3H-DA quantified by a scintillation counter.
# [3] = system: DAT; experiment: chronoamperometry of AMPH-induced DA efflux in striatal slices; format: cell-based; details: pretreatment 100 nM for 20 min, AMPH 10 μM
# Excerpt: Chronoamperometry was used to evaluate AMPH-induced DA efflux in striatal slices.
# [4] = target: T1, GLP-1 receptor (Rattus norvegicus, UniProt P32301); experiment: locomotor activity with or without AMPH; format: in vivo
# T1 construct: from tissue; host or cells: whole animal (in vivo, i.p. dosing)
# T1 sequence (P32301 22-463): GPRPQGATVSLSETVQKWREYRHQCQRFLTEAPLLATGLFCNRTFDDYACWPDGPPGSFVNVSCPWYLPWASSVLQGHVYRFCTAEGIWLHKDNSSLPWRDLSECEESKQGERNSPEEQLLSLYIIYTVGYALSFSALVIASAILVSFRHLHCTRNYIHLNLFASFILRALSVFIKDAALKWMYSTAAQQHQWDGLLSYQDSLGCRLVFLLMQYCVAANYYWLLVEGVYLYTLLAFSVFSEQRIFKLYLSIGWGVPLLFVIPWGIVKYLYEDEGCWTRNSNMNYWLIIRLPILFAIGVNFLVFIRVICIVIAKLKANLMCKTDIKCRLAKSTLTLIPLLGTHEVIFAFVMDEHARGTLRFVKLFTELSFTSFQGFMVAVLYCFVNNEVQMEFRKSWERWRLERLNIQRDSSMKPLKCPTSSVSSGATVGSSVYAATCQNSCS
Substance,surface expression of the Na+/K+ ATPase [1],DA uptake (3H-DA) [2],AMPH-induced increase in extracellular DA [3],AMPH-induced locomotor activity ([4]; 30 μg/kg i.p. 90 min prior to AMPH 2.78 mg/Kg i.p.),"basal locomotion ([4]; 30 μg/kg i.p., absence of AMPH)"
Glucagon-like peptide-1 [GLP-1],did not affect,significantly increased,significantly potentiates,,
exendin-4 [EX4],,,,significantly decreased,significantly decreased
